One molecule from patent US8216644B2, “Controlling wood staining and color during post-harvest processing” (Purdue Research Foundation, priority 2006, dated 2012) can be followed below.

Test [1] has as its system freshly cut black walnut wood.
The test system of test [2] is freshly cut sugar maple wood. The test can be described thus: test strip assay on freshly cut wood, sugar maple.

Consider `NC(N)=O.OO` [hydrogen peroxide urea adduct], for which the staining of wood entry in test [1] (0.5 and 1.0% (w:w) concentration range, FIG. 4) is given as “visible staining”. Further, the “staining of wood (experimental spots)” value in test [1] (test strips 0.5, 1.0, 5.0 and 10% (w:w), FIG. 2) is “visible on top of the background staining”. Moreover, the “staining of wood at 10%” value in test [2] (10% (w:w), FIG. 1) is listed as “chemical breakdown of the staining due to bulk oxidation”. The “background gray scale values (bg), relative darkness” value in test [2] (image analysis of FIG. 3, plot profile, FIG. 5) was “increase in wood darkening with increasing hydrogen peroxide urea adduct concentrations”. Also, the “concentration range in which the staining reaction appears saturated” value in test [2] (test strips 0, 0.5, 1.0, 5.0 and 10% (w:w), FIG. 1) is 0.5-1.0%. In addition, the “staining reaction over concentration range” value in test [2] (test strips 0.05, 0.1, 0.5 and 1.0% (w:w), FIG. 3) is given as “shows a dose response curve”.
